Data published in patent US20030186939A1, “Omega-cycloalkyl-prostaglandin E2 derivatives” (priority 1997, published 2003).

Key:
Conditions in all cases: competition of 2.5 nM 3H-PGE2 binding, CHO cell membrane fraction; more polar compounds
mouse EP4 = biological target: T1, mouse EP4 (Mus musculus, UniProt P32240); experiment: Binding assay using expression cell of prostanoide receptor subtype (EP4)
T1 construct: expressed in transfected cells; host or cells: CHO cells (membrane fraction)
Description: (§1) The standard assay mixture contained membrane fraction (0.5 mg/ml), and [^3H]-PGE2 in a final volume of 200 μl was incubated for 1 hour at room temperature. The reaction was terminated by the addition of 3 ml of ice-cold buffer. The mixture was rapidly filtered through a GF/B glass filter. The radioactivity associated with the filter was measured by liquid scintillation counting.
(§2) Kd and Bmax values were determined from Scatchard plots [Ann. […] The following buffer was used in all reactions.
(§3) Buffer: 10 mM potassium phosphate (pH 6.0), 1 mM EDTA, 10 mM MgCl2, 0.1 M NaCl
(§4) The dissociation constant (Ki) of each compound was calculated by the following equation.

mouse EP1 = biological target: T2, mouse EP1 (Mus musculus, UniProt P35375); experiment: Binding assay using expression cell of prostanoide receptor subtype (EP1)
T2 construct: expressed in transfected cells; host or cells: CHO cells (membrane fraction)
T2 sequence (P35375 1-405): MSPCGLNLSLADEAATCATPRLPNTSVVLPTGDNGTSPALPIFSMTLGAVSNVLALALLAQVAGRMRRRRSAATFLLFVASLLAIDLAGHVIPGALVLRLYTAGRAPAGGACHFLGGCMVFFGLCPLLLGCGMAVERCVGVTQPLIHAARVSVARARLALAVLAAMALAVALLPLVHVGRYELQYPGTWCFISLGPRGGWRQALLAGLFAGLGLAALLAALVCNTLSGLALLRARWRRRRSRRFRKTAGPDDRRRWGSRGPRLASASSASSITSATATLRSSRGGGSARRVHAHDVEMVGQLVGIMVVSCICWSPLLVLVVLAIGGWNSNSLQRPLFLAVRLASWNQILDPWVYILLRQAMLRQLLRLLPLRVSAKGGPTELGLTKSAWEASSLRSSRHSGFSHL
Description: (§5) The preparation of membrane fraction was carried out according to the method of Sugimoto et. al. [J. Biol. Chem. 267, 6463-6466 (1992)], using expression CHO cell of the prostanoide receptor subtype (mouse EP1, EP2, EP3α, EP4).
as §1
(§6) Kd and Bmax values were determined from Scatchard plots [Ann. N.Y. Acad. Sci., 51, 660 (1949)]. Non-specific binding was calculated as the bound in the presence of an excess (2.5 μM) of unlabeled PGE2. In the experiment for competition of specific ^3H-PGE2 binding by the compounds of the present invention, 2.5 nM of ^3H-PGE2 and various concentrations of compounds of the present invention were added. The following buffer was used in all reactions.
as §3
(§7) In the example compounds, all of values were shown the more polar compounds.
as §4

mouse EP2 = biological target: T3, mouse EP2 (Mus musculus, UniProt Q62053); experiment: Binding assay using expression cell of prostanoide receptor subtype (EP2)
T3 construct: expressed in transfected cells; host or cells: CHO cells (membrane fraction)
Description: as §1, §2, §3, §4

mouse EP3α = biological target: T4, mouse EP3α (Mus musculus, UniProt P30557); experiment: Binding assay using expression cell of prostanoide receptor subtype (EP3α)
T4 construct: expressed in transfected cells; host or cells: CHO cells (membrane fraction)
T4 sequence (P30557 1-365): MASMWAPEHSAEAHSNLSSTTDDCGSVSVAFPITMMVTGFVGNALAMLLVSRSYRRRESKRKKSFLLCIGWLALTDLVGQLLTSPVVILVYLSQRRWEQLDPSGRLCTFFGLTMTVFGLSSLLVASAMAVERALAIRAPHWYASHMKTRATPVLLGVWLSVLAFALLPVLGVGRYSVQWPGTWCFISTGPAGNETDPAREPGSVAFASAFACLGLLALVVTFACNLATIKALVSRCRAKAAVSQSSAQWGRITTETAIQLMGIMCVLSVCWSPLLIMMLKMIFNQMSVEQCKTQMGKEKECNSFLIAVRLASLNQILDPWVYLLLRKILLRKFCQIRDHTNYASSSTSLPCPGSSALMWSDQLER
Description: as §5, §1, §6, §3, §7, §4

T1 sequence (P32240 whole entry): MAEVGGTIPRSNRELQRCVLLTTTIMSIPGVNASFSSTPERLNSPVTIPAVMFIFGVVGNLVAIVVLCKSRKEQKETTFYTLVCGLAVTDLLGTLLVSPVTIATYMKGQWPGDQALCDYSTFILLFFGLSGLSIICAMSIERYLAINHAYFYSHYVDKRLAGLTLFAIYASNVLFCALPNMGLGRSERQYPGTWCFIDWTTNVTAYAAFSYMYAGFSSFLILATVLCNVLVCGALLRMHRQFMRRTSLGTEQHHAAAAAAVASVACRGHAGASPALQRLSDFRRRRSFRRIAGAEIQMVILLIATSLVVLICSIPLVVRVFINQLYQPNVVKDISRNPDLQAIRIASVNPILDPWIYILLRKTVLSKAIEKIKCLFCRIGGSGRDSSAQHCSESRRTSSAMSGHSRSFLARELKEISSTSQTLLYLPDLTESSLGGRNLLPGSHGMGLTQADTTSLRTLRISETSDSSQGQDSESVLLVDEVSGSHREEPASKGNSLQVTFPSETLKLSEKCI
T3 sequence (Q62053 whole entry): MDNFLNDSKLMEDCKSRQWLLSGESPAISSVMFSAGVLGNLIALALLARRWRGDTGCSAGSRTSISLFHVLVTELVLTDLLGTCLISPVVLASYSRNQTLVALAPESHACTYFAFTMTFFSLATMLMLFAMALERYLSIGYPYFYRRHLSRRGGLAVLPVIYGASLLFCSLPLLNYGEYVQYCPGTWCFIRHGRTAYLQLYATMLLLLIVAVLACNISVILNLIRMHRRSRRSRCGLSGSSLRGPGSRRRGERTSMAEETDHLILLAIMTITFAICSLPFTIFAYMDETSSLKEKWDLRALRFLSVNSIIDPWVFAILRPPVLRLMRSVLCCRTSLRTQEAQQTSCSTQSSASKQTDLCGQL

| SMILES | Ki (mouse EP4) | Ki (mouse EP1) | Ki (mouse EP2) | Ki (mouse EP3α) |
| --- | --- | --- | --- | --- |
| C=C1C[C@@H](O)[C@H](/C=C/CC(O)C2(CCC)CCC2)[C@H]1C/C=C\CCCC(=O)O (stereo partly drawn) [compound 12] | > 10 µM | > 10 µM | 0.37 µM | > 10 µM |
| C=CCC1(C(O)C/C=C/[C@H]2[C@H](O)CC(=O)[C@@H]2C/C=C\CCCC(=O)O)CCC1 (stereo partly drawn) [Example 4(5), (5Z, 11α, 13E)-11,16-dihydroxy-9-oxo-17,17-propanoprosta-5, 13-19-trienoic acid] | > 10 µM | > 10 µM | 0.032 µM | > 10 µM |
| CCCC1(C(O)C/C=C/[C@H]2[C@H](OC)CC(=O)[C@@H]2C/C=C\CCCC(=O)O)CCC1 (stereo partly drawn) [compound 10] | > 10 µM | > 10 µM | 0.034 µM | > 10 µM |
| C=CCC1(C(O)C/C=C/[C@@H]2[C@@H](C/C=C\CCCC(=O)OC)[C@H](Cl)C[C@H]2O)CCC1 (stereo partly drawn) [Example 16(1), (5Z, 9β, 11α, 13E)-17, 17-propano-11, 16-dihydroxy-9-chloroprosta-5, 13, 19-trienoic acid•methylester] | > 10 µM | > 10 µM | 0.096 µM | > 10 µM |
| C=CCCC1(C(O)C/C=C/[C@H]2[C@H](O)CC(=O)[C@@H]2C/C=C\CCCC(=O)O)CCC1 (stereo partly drawn) [Example 6(1), (5Z, 11α, 13E)-17,17-propano-20,20-methylene-11,16-dihydroxy-9-oxoprosta-5,13-dienoic acid] | > 10 µM | > 10 µM | 0.036 µM | > 10 µM |
| C=CC1(C(O)C/C=C/[C@H]2[C@H](O)CC(=O)[C@@H]2C/C=C\CCCC(=O)O)CCC1 (stereo partly drawn) [Example 6(5), (5Z, 11α, 13E)-17,17-propano-11,16-dihydroxy-9-oxo-20-norprosta-5,13,18-trienoic acid] | > 10 µM | > 10 µM | 0.076 µM | > 10 µM |
| CCCC1(C(O)C/C=C/[C@H]2[C@H](O)CC(=O)[C@@H]2C/C=C\CCCC(=O)O)CCC1 (stereo partly drawn) [compound 4] | > 10 µM | > 10 µM | 0.092 µM | > 10 µM |
| O=C(O)CCC/C=C\C[C@@H]1[C@@H](/C=C/CC(O)C2(CC3CC3)CCC2)[C@H](O)C[C@H]1Cl (stereo partly drawn) [Example 17(2), (5Z, 9β, 11α, 13E)-17, 17-propano-19, 20-methano-11, 16-dihydroxy-9-chloroprosta-5, 13-dienoic acid] | 0.4 µM | 1.1 µM | 0.0009 µM | 2.7 µM |
| CCC1(C(O)C/C=C/[C@H]2[C@H](O)CC(=O)[C@@H]2C/C=C\CCCC(=O)O)CCC1 (stereo partly drawn) [Example 4(10), (5Z, 11α, 13E)-11,16-dihydroxy-9-oxo-17,17-propano-20-norprosta-5,13-dienoic acid] | > 10 µM | > 10 µM | 0.03 µM | > 10 µM |
